Results: PubChem BioAssay AID1996
≈ marks a conversion by molar mass, not a printed value.

details: buffer; pH 7.4; 200.0 µM

SMILES | solubility kinetic [µg/mL]
N#Cc1ccc(NC(=O)COC(=O)c2cccnc2Cl)cc1 | > 47.4
O=C(O)c1csc(-c2ccccc2)n1 | 28.2 (≈ 137 µM)
COc1cccc(CN(C)C(=O)C23CC4CC(CC(C4)C2)C3)c1 | 19.4 (≈ 61.9 µM)
CC1CCN(CCC(=O)Nc2ccccc2)CC1 | 29.5 (≈ 120 µM)
Cc1ccccc1CC(=O)NCCN1CCCCC1 | > 39.1
Cc1cc(C(=O)Nc2cccc3ccccc23)co1 | 33 (≈ 131 µM)
O=C(CNC(=O)c1ccc(F)cc1)Nc1ccccc1C(F)(F)F | 16.2 (≈ 47.6 µM)
COC(=O)CCC(=O)NC(=S)Nc1ccc(S(=O)(=O)Nc2cc(C)on2)cc1 | 57.4 (≈ 135 µM)
N#Cc1ccc(S(=O)(=O)NC2CC2)cc1 | > 33.3
COc1ccccc1OCCCCN1CCCCC1 | 36.1 (≈ 137 µM)
S=C(NCc1ccco1)N1CCN(c2ccccn2)CC1 | 42.5 (≈ 141 µM)
Cc1cccc(-c2nc(C#N)c(NCc3ccco3)o2)c1 | 1.9 (≈ 6.8 µM)
COc1ccc(Br)cc1CNCCc1ccc2c(c1)OCO2 | 52.3 (≈ 144 µM)
COc1ccc(N(C)C(=O)c2sc(Cl)nc2C)cc1 | 42.7 (≈ 144 µM)
COc1ccccc1NC(=O)COC(=O)CNC(=O)C1CCCCC1 | > 52.3
Cc1ccc(-n2c(C)cc(/C=C3\SC(=O)NC3=O)c2C)cc1 | < 0.3
Cc1ccnc(N2CCCC(C(=O)Nc3ccc(C)c(C)c3)C2)n1 (stereo not given) | 1.4 (≈ 4.32 µM)
Cc1cc(N2CCN(C)CC2)nc2ccccc12 | 32.9 (≈ 136 µM)
O=C(CNC(=O)c1ccccc1)NCCCSc1ccccc1 | 25.2 (≈ 76.7 µM)
CC(C(=O)N1CCCC1)N(c1ccccc1)S(C)(=O)=O (stereo not given) | > 44.5

SMILES | solubility kinetic [µg/mL]
CCc1ccc(OCC(=O)NC2CC(C)(C)NC(C)(C)C2)cc1 | 44 (≈ 138 µM)
COc1ccccc1N(Cc1cc(=O)[nH]c2ccccc12)C(C)=O | > 48.4
O=C(CSc1ncnc2sccc12)Nc1ccccc1 | 6.9 (≈ 22.9 µM)
O=c1c2ccccc2nc2oc3ccccc3n12 | 1.1 (≈ 4.66 µM)
O=C(O)CCn1c(=O)oc2cc(S(=O)(=O)N3CCCC3)ccc21 | > 51.1
Cc1cc(O)c(C(=O)/C=C/c2cccc([N+](=O)[O-])c2)c(=O)o1 | > 45.2
CC(C)(C)c1cc(NS(=O)(=O)c2cccs2)no1 | 30.8 (≈ 108 µM)
O=C(O)c1ccc(NC(=O)C2C3CCC(O3)C2C(=O)O)cc1 (stereo not given) | > 45.8
Cc1cccc(OCC(=O)Nc2ccc3nc(C)sc3c2)c1 | 1.8 (≈ 5.76 µM)
O=c1[nH]c(=S)n(C2CC2)c(O)c1C=Nc1ccc2c(c1)OCO2 | 1.3 (≈ 3.92 µM)
COc1cccc(OC)c1C(=O)Nc1ccc(N2CCCC2)cc1 | 46.9 (≈ 144 µM)
O=[N+]([O-])c1ccccc1S(=O)(=O)N1CCSCC1 | 34.2 (≈ 119 µM)
COc1cccc(CN(C)C(=O)c2cc(S(=O)(=O)NC3CCCCC3)ccc2C)c1 | 45.3 (≈ 105 µM)
O=[N+]([O-])c1ccc2nc(-c3ccccn3)[nH]c2c1 | 5 (≈ 20.8 µM)
CN(C)c1cccc2cccc(N(C)C)c12 | 31.2 (≈ 146 µM)
Cc1ccccc1NS(=O)(=O)c1ccc(C(=O)N(C)CC(=O)Nc2ccccc2Br)cc1 | 73 (≈ 141 µM)
O=C(NCC1CCCO1)c1ccc(COc2ccccc2)o1 (stereo not given) | > 45.2
O=C(NCCN1CCOCC1)c1c(Cl)cccc1Cl | 44.9 (≈ 148 µM)
Cc1cc(C)c(C)c(S(=O)(=O)N2CCSCC2)c1C | < 0.6
CC1=C(C(=O)OCc2ccccc2)C(c2ccccc2)NC(=O)N1 (stereo not given) | 2.8 (≈ 8.69 µM)

SMILES | solubility kinetic [µg/mL]
O=C(NC1CCCCC1)c1ccc(N2CCOCC2)c([N+](=O)[O-])c1 | > 50
CCOC(=O)C1=C(C)NC(=O)CC1c1ccccc1OC (stereo not given) | 36.8 (≈ 127 µM)
S=C(Nc1ccccc1)N1CCN(Cc2ccccc2)CC1 | > 46.7
COC(=O)c1cn(C(=O)c2ccc(Cl)cc2)c2ccccc12 | 1.6 (≈ 5.1 µM)
Cc1cc(C)c2c(CN3CCOCC3)cc(=O)oc2c1 | 37.2 (≈ 136 µM)
COc1ccc(NC(=O)CCn2cc(C)c3ccccc32)cc1 | 4.4 (≈ 14.3 µM)
c1cncc(Nc2c3ccccc3nc3ccccc23)c1 | 2 (≈ 7.37 µM)
CCC1CN(C(=O)NCc2ccc(C)cc2)c2ccccc2O1 (stereo not given) | 20.8 (≈ 67 µM)
COC(=O)c1ccc(C)c(NS(=O)(=O)c2cn(C)nc2C)c1 | > 48.5
CCOC(=O)C1CCN(C(=O)CSc2nc(N)cc(=O)[nH]2)CC1 | > 51.1
Cc1cccc(N=C2CSC(=O)N2)c1 | > 30.9
COc1ccccc1C1=NOC(COC(=O)c2ccc([N+](=O)[O-])cc2)C1 (stereo not given) | < 0.4
O=Cc1cn(-c2ccccc2)nc1-c1ccncc1 | > 37.4
Cc1ccc(C)c(NC(=O)CN(C)C(=O)COc2ccc3ccccc3c2)c1 | 3.1 (≈ 8.23 µM)
CCN(CC(=O)Nc1ccc(NC(C)=O)cc1)S(=O)(=O)/C=C/c1ccccc1 | 9.6 (≈ 23.9 µM)
CN(C)CCNC(=O)Cn1c(=O)c2cccn2c2ccc(F)cc21 | > 49.6
CCc1ccc(NC(=O)C2C3CCC(O3)C2C(=O)O)cc1 (stereo not given) | 39.3 (≈ 136 µM)
C#CCOC(=O)C[N+](C)(C)CC=C.[Cl-] | > 32.7
CCc1ccc(C(=O)Nc2ccc3nc(C)ccc3c2)cc1 | < 0.3
CC(=O)c1cccc(NC(=O)c2cccc(NC(=O)c3ccco3)c2)c1 | < 0.4
